Results reported in ChEMBL document CHEMBL4007454 (J Med Chem, 2017).
Converted amounts (≈) assume the structure as drawn.

How the values were obtained:
[1] = Equilibrium solubility in fasted state simulated intestinal fluid after 24 hrs by HPLC method; assay type: physicochemical
[2] = Equilibrium solubility in fed state simulated intestinal fluid after 24 hrs by HPLC method; assay type: physicochemical
[3] = test system: Rattus norvegicus; assay: In vivo inhibition of LRRK2 Ser935 phosphorylation in CD rat brain cortex assessed as unbound brain concentration causing reduction in ratio of phosphorylated Ser935 to total LRRK2 protein at 1 to 100 mg/kg, po administered 1 hr post treatment by Western blot analysis; assay type: functional
[4] = Oral bioavailability in Han-Wistar rat at 10 mg/kg, measured after 15 to 480 mins by LC-MS/MS analysis; assay type: ADME, organism-based; conditions: in vivo
[5] = test system: Mus musculus; assay: In vivo inhibition of LRRK2 Ser935 phosphorylation in mouse brain cortex assessed as reduction in ratio of phosphorylated Ser935 to total LRRK2 protein at =>10 mg/kg, po administered 1 hr prior to euthanasia measured by Western blot analysis; assay type: functional
[6] = Intrinsic clearance in rat hepatocytes assessed per million cells at 1 uM after 180 mins by LC-MS/MS analysis; assay type: ADME, cell-based, Hepatocyte; conditions: read-out: CLH
[7] = Equilibrium solubility in Water after 24 hrs by HPLC method; assay type: physicochemical
[8] = test system: Mus musculus; assay: In vivo inhibition of LRRK2 Ser935 phosphorylation in mouse brain assessed as unbound plasma concentration causing reduction in ratio of phosphorylated Ser935 to total LRRK2 protein at 1 to 100 mg/kg, po administered 1 hr post treatment by Western blot analysis; assay type: functional, organism-based
[9] = Equilibrium solubility in pH 5 acetate buffer after 24 hrs by HPLC method; assay type: physicochemical
[10] = Fraction unbound in rat plasma at 10 uM after 4 hrs by rapid equilibrium dialysis method; assay type: ADME, cell-free
[11] = Cmax in Han-Wistar rat at 10 mg/kg, po measured after 15 to 480 mins by LC-MS/MS analysis; assay type: ADME, organism-based; conditions: in vivo, read-out: C0
[12] = test system: Mus musculus; assay: In vivo inhibition of LRRK2 Ser935 phosphorylation in mouse brain assessed as unbound brain concentration causing reduction in ratio of phosphorylated Ser935 to total LRRK2 protein at 1 to 100 mg/kg, po administered 1 hr post treatment by Western blot analysis; assay type: functional, organism-based
[13] = AUC (0 to 8 hrs) in Han-Wistar rat at 10 mg/kg, po measured after 15 to 480 mins by LC-MS/MS analysis; assay type: ADME, organism-based; design: dose 10 mg/kg, time < 8 hr, route oral; conditions: in vivo
[14] = AUC (0 to 8 hrs) in Han-Wistar rat at 2 mg/kg, iv measured after 2 to 480 mins by LC-MS/MS analysis; assay type: ADME, organism-based; design: time < 8 hr, dose 2 mg/kg, route intravenous; conditions: in vivo
[15] = molecular target: T1, Cytochrome P450 3A4 (Homo sapiens, UniProt P08684); assay: Time dependent inhibition of human CYP3A4; assay type: ADME
[16] = MRT in Han-Wistar rat at 10 mg/kg, po measured after 15 to 480 mins by LC-MS/MS analysis; assay type: ADME, organism-based; conditions: in vivo
[17] = Clearance in Han-Wistar rat at 2 mg/kg, iv measured after 2 to 480 mins by LC-MS/MS analysis; assay type: ADME, organism-based; conditions: in vivo
[18] = test system: Rattus norvegicus; assay: In vivo inhibition of LRRK2 Ser935 phosphorylation in CD rat brain cortex assessed as unbound plasma concentration causing reduction in ratio of phosphorylated Ser935 to total LRRK2 protein at 1 to 100 mg/kg, po administered 1 hr post treatment by Western blot analysis; assay type: functional
[19] = Equilibrium solubility in simulated gastric fluid after 24 hrs by HPLC method; assay type: physicochemical
[20] = MRT in Han-Wistar rat at 2 mg/kg, iv measured after 2 to 480 mins by LC-MS/MS analysis; assay type: ADME, organism-based; conditions: in vivo
[21] = Half life in Han-Wistar rat at 2 mg/kg, iv measured after 2 to 480 mins by LC-MS/MS analysis; assay type: ADME, organism-based; conditions: in vivo
[22] = molecular target: T1, Cytochrome P450 3A4; assay: Inhibition of human CYP3A4; assay type: ADME
[23] = molecular target: Cytochrome P450 2C9 (Homo sapiens, UniProt P11712); assay: Inhibition of human CYP2C9; assay type: ADME
[24] = Intrinsic clearance in human hepatocytes assessed per million cells at 1 uM after 180 mins by LC-MS/MS analysis; assay type: ADME, cell-based, Hepatocyte; conditions: read-out: CLH
[25] = Initial concentration in Han-Wistar rat at 2 mg/kg, iv measured after 2 to 480 mins by LC-MS/MS analysis; assay type: ADME, organism-based; conditions: in vivo
[26] = test system: Rattus norvegicus; assay: In vivo inhibition of LRRK2 Ser935 phosphorylation in CD rat brain cortex assessed as reduction in ratio of phosphorylated Ser935 to total LRRK2 protein at => 30 mg/kg, po administered 1 hr post treatment by Western blot analysis; assay type: functional
[27] = Tmax in Han-Wistar rat at 10 mg/kg, po measured after 15 to 480 mins by LC-MS/MS analysis; assay type: ADME, organism-based; conditions: in vivo
[28] = molecular target: Cytochrome P450 2D6 (Homo sapiens, UniProt P10635); assay: Inhibition of human CYP2D6; assay type: ADME
[29] = Equilibrium solubility in pH 6.5 Phosphate buffer after 24 hrs by HPLC method; assay type: physicochemical

T1 sequence (P08684 whole entry): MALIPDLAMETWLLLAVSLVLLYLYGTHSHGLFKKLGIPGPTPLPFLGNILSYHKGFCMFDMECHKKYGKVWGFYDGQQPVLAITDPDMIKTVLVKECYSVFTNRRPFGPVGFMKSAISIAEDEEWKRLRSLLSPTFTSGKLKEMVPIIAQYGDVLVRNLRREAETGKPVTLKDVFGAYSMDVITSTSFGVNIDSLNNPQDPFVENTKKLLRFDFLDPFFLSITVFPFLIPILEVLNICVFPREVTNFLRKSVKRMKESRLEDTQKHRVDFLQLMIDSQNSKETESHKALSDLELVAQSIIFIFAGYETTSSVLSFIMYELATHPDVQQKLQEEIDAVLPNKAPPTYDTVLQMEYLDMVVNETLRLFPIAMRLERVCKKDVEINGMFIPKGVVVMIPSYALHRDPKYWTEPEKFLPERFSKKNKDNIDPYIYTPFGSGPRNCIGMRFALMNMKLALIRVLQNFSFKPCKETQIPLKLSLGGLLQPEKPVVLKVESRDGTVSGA
Sequence of Cytochrome P450 2C9 (P11712 whole entry): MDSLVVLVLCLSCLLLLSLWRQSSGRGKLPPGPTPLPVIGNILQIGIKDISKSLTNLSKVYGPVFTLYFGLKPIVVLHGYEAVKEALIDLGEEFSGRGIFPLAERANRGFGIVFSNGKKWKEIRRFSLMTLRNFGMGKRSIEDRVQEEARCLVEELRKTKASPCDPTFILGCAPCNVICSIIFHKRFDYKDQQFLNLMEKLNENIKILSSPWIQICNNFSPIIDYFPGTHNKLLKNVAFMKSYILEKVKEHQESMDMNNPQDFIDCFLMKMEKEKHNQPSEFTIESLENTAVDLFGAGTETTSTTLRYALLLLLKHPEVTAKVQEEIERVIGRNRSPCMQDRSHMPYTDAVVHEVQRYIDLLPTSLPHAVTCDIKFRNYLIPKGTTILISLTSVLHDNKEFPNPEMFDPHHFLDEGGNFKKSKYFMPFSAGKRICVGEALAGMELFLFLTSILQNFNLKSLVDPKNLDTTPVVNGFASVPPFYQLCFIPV
Sequence of Cytochrome P450 2D6 (P10635 whole entry): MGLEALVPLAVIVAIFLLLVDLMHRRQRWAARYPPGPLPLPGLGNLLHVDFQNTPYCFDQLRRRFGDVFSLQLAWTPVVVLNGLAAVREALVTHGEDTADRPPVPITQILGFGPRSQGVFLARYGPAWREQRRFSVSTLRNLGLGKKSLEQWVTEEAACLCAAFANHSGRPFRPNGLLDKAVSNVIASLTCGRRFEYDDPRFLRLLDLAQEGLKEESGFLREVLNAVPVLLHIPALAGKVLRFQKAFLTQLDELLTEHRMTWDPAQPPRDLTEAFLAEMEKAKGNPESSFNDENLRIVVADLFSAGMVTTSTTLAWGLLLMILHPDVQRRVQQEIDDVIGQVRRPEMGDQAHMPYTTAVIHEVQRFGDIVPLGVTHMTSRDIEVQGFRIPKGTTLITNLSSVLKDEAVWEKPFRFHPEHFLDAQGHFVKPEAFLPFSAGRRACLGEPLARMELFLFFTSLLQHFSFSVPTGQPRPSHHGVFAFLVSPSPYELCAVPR

- solubility thermodynamic at 24 h [1]: 14 to 38 µg/mL (≈ 36.9 to 100 µM)
- solubility thermodynamic at 24 h [2]: 14 to 38 µg/mL (≈ 36.9 to 100 µM)
- bioavailability [4]: 39%
- hepatocyte CLint at 1 µM [6]: 15 µL/min/1e6 cells
- solubility thermodynamic at 24 h [7]: 14 to 38 µg/mL (≈ 36.9 to 100 µM)
- IC50 [8]: 1.1 nM
- solubility thermodynamic at 24 h [9]: 14 to 38 µg/mL (≈ 36.9 to 100 µM)
- fraction unbound at 4 h, 10 µM [10]: 0.012
- Cmax [11]: 480 nM
- IC50 [12]: 0.8 nM
- AUC(0-t) at 8 h [13]: 1.3 µM·h
- AUC(0-t) at 8 h [14]: 0.66 µM·h
- TDI [15]: Not Active
- MRT [16]: 4 h
- clearance [17]: 153 mL/min/kg
- solubility thermodynamic at 24 h [19]: 14 to 38 µg/mL (≈ 36.9 to 100 µM)
- MRT [20]: 1.7 h
- half-life [21]: 1.8 h
- IC50 [22]: > 50000 nM
- IC50 [23]: > 50000 nM
- hepatocyte CLint at 1 µM [24]: 8 µL/min/1e6 cells
- C0 [25]: 1170 nM
- Tmax [27]: 1.3 h
- IC50 [28]: > 50000 nM
- solubility thermodynamic at 24 h [29]: 14 to 38 µg/mL (≈ 36.9 to 100 µM)
SMILES: C[C@@H]1CN(c2cc(-c3n[nH]c4ccc(OC5(C)CC5)cc34)ncn2)C[C@H](C)O1 [MLi-2]
- fIC50 [3]: 0.18 nM
- inhibition (INH) [5]: >90%
- fIC50 [18]: 0.2 nM
- inhibition (INH) [26]: >90%
